A melting point compilation (Tetko et al.)

SMILES | melting point
c1nc(N2CCNCC2)c2ccsc2n1 | 71 to 73 °C
NC(=O)NC(=O)CCCCl | 179 to 181 °C
COC(=O)c1nscc1N | 54 to 56 °C
CC(C)C(Br)C(=O)N1CCC(C(N)=O)CC1 (stereo unspecified) | 172 to 174 °C
Cn1ncc(C(=O)O)c1C1CC1 | 104 to 106 °C
C=CCNC(=O)CC#N | 65 to 67 °C
O=C(O)C1(Sc2ccccc2)CCCC1 | 65 to 67 °C
CCC(CC)C(=O)N1CCC(=NO)CC1 | 101 to 103 °C
NC(Cc1ccc(O)cc1)c1nc2ccccc2[nH]1 (stereo unspecified) | 193 to 195 °C
NC(=O)C1CCN(C(=O)CCl)CC1 | 136 to 138 °C
Cc1c(C=O)cc(C#N)n1C | 85 to 97 °C
NC(CC(=O)O)C1CC1 (stereo unspecified) | 209 to 211 °C
O=C1CC(c2ccccc2)=NN1 | 246 to 248 °C
NS(=O)(=O)N1CCNCC1 | 164 to 166 °C
Clc1nc(CN2CCCCC2)nc2sc3c(c12)CCC3 | 75 to 77 °C
O=C(Nc1cccc(C(=O)O)c1)NC1CC1 | 236 to 238 °C
Clc1ccccc1Nc1nc2ccccc2s1 | 126 to 128 °C
N#Cc1ccc(Oc2ccc(N)cc2)cc1 | 110 to 112 °C
O=C(O)c1cc(O)nc2ccc(Br)cc12 | 355 to 357 °C

SMILES | melting point
O=[N+]([O-])c1ccccc1NCCO | 76 to 78 °C
CC(C)c1cc(C(=O)O)n(C)n1 | 158 to 160 °C
CC(C)c1nnc(S)[nH]1 | 156 to 158 °C
O=[N+]([O-])c1ccccc1Nc1ccc(F)cc1F | 79 to 81 °C
O=Cc1ccc(OCc2ccncc2)cc1 | 112 to 114 °C
Nc1c(C(=O)N2CCOCC2)oc2ccccc12 | 123 to 125 °C
NC(=S)COc1ccc(F)cc1 | 120 to 122 °C
Cc1c(C(=O)O)nnn1-c1ccc(OC(C)C)cc1 | 159 to 161 °C
NOC1CCCCO1 (stereo unspecified) | 34 to 37 °C
Cc1nc(C)c2c(C)c(C(=O)O)sc2n1 | 347 to 349 °C
O=C(O)CC#Cc1ccccc1 | 71 to 73 °C
NS(=O)(=O)N1CCOCC1 | 161 to 163 °C
CC(Cl)C(=O)N1CCN(C(=O)OC(C)(C)C)CC1 (stereo unspecified) | 115 to 117 °C
COC(=O)c1cnc[nH]1 | 154 to 156 °C
O=C(O)CCCN1C(=O)c2ccccc2C1=O | 96 to 98 °C
O=c1[nH]c(CCl)nc2scc(-c3ccccc3)c12 | 227 to 229 °C
O=C(O)C1CC1C(=O)O (stereo unspecified) | 177 to 179 °C
O=C1CCc2cc(C(=O)c3ccccc3)ccc2N1 | 207 to 209 °C
CC(=O)N(c1ccccc1)c1nc(C=O)cs1 | 150 to 152 °C

SMILES | melting point
FC(F)(F)Oc1ccc(-n2nnnc2S)cc1 | 123 to 125 °C
CCN(C(=O)OC(C)(C)C)C(C#N)c1cccnc1 (stereo unspecified) | 66 to 68 °C
O=C(CO)NC1CCCc2ccccc21 (stereo unspecified) | 114 to 116 °C
c1cc2c(cn1)NCCCN2 | 121 to 123 °C
CC(=O)N1CCc2ccccc2C1CC(=O)O (stereo unspecified) | 163 to 167 °C
COC(=O)Cc1c(C(=O)OC)sc(N)c1C(=O)OC | 178 to 180 °C
OC(CC1COCCN1)c1cccs1 (stereo unspecified) | 109 to 111 °C
NC(=NO)c1ccc(COc2ccccc2)cc1 | 143 to 145 °C
N#CC1(N)CCSC1 (stereo unspecified) | 54 to 56 °C
CCc1nonc1N | 69 to 71 °C
CN1NC=C2CN=C(Cl)N=C21 | 189 to 191 °C
O=C(Nc1ccccc1C(=O)O)c1ccccc1 | 178 to 182 °C
O=C(O)Cn1ccc(=O)[nH]c1=O | 279 to 281 °C
Cc1c(C(=O)O)sc2nc(C(F)(F)F)ccc12 | 265 to 267 °C
CN(C)CCn1c(S)nc2ccsc2c1=O | 192 to 194 °C
NNC(=O)CN1CCCC1=O | 99 to 101 °C
O=C(O)Cc1csc(NC(=O)c2cccs2)n1 | 194 to 196 °C
Cn1cc(C=NNC(N)=S)cn1 | 189 to 191 °C

Second part, the molecule after the results:

melting point | SMILES
79 to 81 °C | Cc1cnn(-c2ccccc2)c1N
209 to 211 °C | CCOC(=O)c1ccn2nc3ncccc3c2n1
87 to 89 °C | Cc1cccc(N)c1C(=O)N1CCCC1
118 to 120 °C | O=C(CCl)Nc1cc(F)ccc1F
148 to 150 °C | Nc1ccc(C(=O)N2CCCCC2)c(Cl)c1
172 to 174 °C | NC(=O)c1cccc2c1CCCN2
110 to 112 °C | COc1ccc(Cl)cc1C(F)(F)C(=O)O
35 to 37 °C | CCCOc1cc(C=O)ccc1OC
99 to 101 °C | NNC(=O)Cc1cccnc1
109 to 111 °C | CC(C(=O)O)S(=O)(=O)Cc1cccc(Br)c1 (stereo unspecified)
209 to 211 °C | CN1C(=O)CCc2cc(C(=O)O)ccc21
189 to 191 °C | Cc1cc(F)ccc1-c1ccc(C(=O)O)cc1F
53 to 55 °C | O=C(c1ccncc1)c1cc(F)ccc1F
159 to 161 °C | Nc1ccc2oc(=O)ccc2c1
98 to 100 °C | CC(Cl)C(=O)Nc1cccc(Cl)c1 (stereo unspecified)
114 to 118 °C | O=C(O)C1Cc2cc(Cl)ccc2O1 (stereo unspecified)
118 to 120 °C | CC(C)N(C)S(=O)(=O)c1ccc(NC(=O)CCl)cc1
104 to 106 °C | O=C(O)C(Oc1ccc(Br)cc1F)c1ccccc1 (stereo unspecified)
119 to 121 °C | Cc1c(S(=O)(=O)Cl)cnn1-c1ccc(Cl)cc1
82 to 84 °C | CCN(CC)S(=O)(=O)c1cccc(NC(=O)CCl)c1
59 to 61 °C | OCCOc1cc(Cl)ccc1Cl
170 to 172 °C | CN(CC(=O)O)c1ccc(C#N)cn1
282 to 284 °C | O=C(O)c1ccc(CN2C(=O)CNC2=O)cc1
140 to 142 °C | CS(=O)(=O)Cc1ccc(Cl)cc1N
144 to 146 °C | O=C(O)C1CC1c1c(Cl)cccc1Cl (stereo unspecified)

melting point | SMILES
152 to 154 °C | Nc1cccc(N2CCOC2=O)c1
35 to 37 °C | N#CCc1ccc(F)c(Br)c1
152 to 154 °C | COc1ccc(S(=O)(=O)N(C)C)cc1NC(=O)CCl
155 to 157 °C | COC(=O)c1ncsc1S(N)(=O)=O
144 to 146 °C | COc1cc(C(=O)O)ccc1OC(C)=O
34 to 36 °C | C#Cc1c(F)cccc1F
174 to 176 °C | Nc1cccc(-c2csc(N)n2)c1
110 to 112 °C | Cc1ccc(-n2nnnc2S)c(C)c1
144 to 146 °C | CC(Cl)C(=O)Nc1ccccc1Cc1ccccc1 (stereo unspecified)
59 to 61 °C | COC(=O)CCNc1ccc(C)cc1
167 to 169 °C | CC1(c2ccc(F)cc2)NC(=O)N(CC(=O)O)C1=O (stereo unspecified)
53 to 55 °C | CNS(=O)(=O)c1ccccc1N
56 to 58 °C | COC(=O)c1cccc(OCC(F)(F)F)c1
70 to 72 °C | OCc1ccc(Br)cc1Cl
165 to 167 °C | NS(=O)(=O)c1cc([N+](=O)[O-])cs1
153 to 155 °C | CCC(CO)NC(=O)c1ccc(N)cc1 (stereo unspecified)
173 to 175 °C | NS(=O)(=O)CCS(=O)(=O)c1ccc(F)cc1
183 to 185 °C | NC(=O)c1ccccc1I
142 to 144 °C | CCOC(=O)/C(C#N)=C/Nc1ccc(F)cc1F
107 to 109 °C | Cc1ccc(NN)nn1
78 to 80 °C | CCOc1ccc(S(=O)(=O)Cl)cc1-c1ccccc1
179 to 181 °C | Cc1cc(COc2ccc(C=O)cc2)oc1C(=O)O
107 to 109 °C | COC(=O)c1sc(-c2cccc(Br)c2)cc1N
181 to 183 °C | O=C1CCS(=O)(=O)c2c(F)cccc21
177 to 179 °C | Cc1cc(C(=O)NN)c2ccccc2n1
